Results published in ChEMBL document CHEMBL1145771 (Bioorg Med Chem Lett, 2003).

Key:
[1] = Inhibition of protein phosphatase 1 (PP1) was determined by standard phosphorylase a inhibition assay; set-up: species or system Oryctolagus cuniculus
[2] = Selectivity ratio for inhibition of Protein phosphatase 1 and Protein phosphatase 2A

Row | Compound | IC50 [1] [µM] | Selectivity ratio [2]
1 | CO[C@@H]([C@H](O)CC(=O)[C@@H](C)[C@@H](O)CC[C@@H](C)[C@@H]1O[C@]2(CC[C@@H](C)[C@H](CC[C@H](C)C(C)=O)O2)CC[C@@H]1C)[C@H](OC(=O)C[C@](C)(O)C(=O)O)C(C)C | 19 | 1.5
2 | CO[C@@H]([C@H](O)CC(=O)[C@@H](C)[C@@H](O)CC[C@@H](C)[C@@H]1O[C@]2(CC[C@@H](C)[C@H](CC[C@H](C)C(C)=O)O2)CC[C@@H]1C)[C@H](OC(=O)C[C@@](C)(O)C(=O)O)C(C)C | 80 | 1.3
3 | CO[C@@H]([C@H](O)CC(=O)[C@@H](C)[C@@H](O)CC[C@@H](C)[C@@H]1O[C@]2(CC[C@@H](C)[C@H](CC[C@H](C)C(C)=O)O2)CC[C@@H]1C)[C@H](OC(=O)CCCP(=O)(O)O)C(C)C | 150 | 2
4 | CO[C@@H]([C@H](O)CC(=O)[C@@H](C)[C@@H](O)CC[C@@H](C)[C@@H]1O[C@]2(CC[C@@H](C)[C@H](CC[C@H](C)C(C)=O)O2)CC[C@@H]1C)[C@H](OC(=O)C[C@@H](O)/C=C(\C)C(=O)O)C(C)C | 2.1 | 1.9
5 | CO[C@H]([C@H](O)CC(=O)[C@@H](C)[C@@H](O)CC[C@@H](C)[C@@H]1O[C@]2(CC[C@@H](C)[C@H](CC[C@H](C)C(C)=O)O2)CC[C@@H]1C)[C@H](OC(=O)C[C@@H](O)C1=C(C)C(=O)OC1=O)C(C)C [TAUTOMYCIN] | 1.9 | 
6 | CO[C@@H]([C@H](O)CC(=O)[C@@H](C)[C@@H](O)CC[C@@H](C)[C@@H]1O[C@]2(CC[C@@H](C)[C@H](CC[C@H](C)C(C)=O)O2)CC[C@@H]1C)[C@H](OC(=O)C[C@H](O)C1=C(C)C(=O)OC1=O)C(C)C | 0.13 | 
